Assays:
[1] = design: method as in printed; conditions: ref not given; cited from earlier work
[2] = design: method as in printed; conditions: library annotation; ref not given; cited from earlier work
[3] = design: method as in PMID 10725311; conditions: after i.v. dosing radiolabeled drug; cited from earlier work
[4] = system: murine CT-26 tumor-bearing immuno-competent mice; experiment: CPT-11 induced diarrhea in CT-26 tumor-bearing mice; assay type: in vivo
Description: We tested the effect of Hst (20 and 100 mg/kg) on murine CT-26 tumor-bearing immuno-competent mice with CPT-11 (50 mg/kg, roughly equivalent to 5 mg/kg typical human CPT-11 dose) intraperitoneally injected daily from day 1-9. Hst was given from day 1-15 and 30 min before CPT-11 administration on day 1-9. Changes of stool character were recorded twice daily to determine the severity of diarrhea. Fecal staining of skin or lose watery stool was determined as diarrhea but not severe, and only the black sticky stool (bloody diarrhea) was determined as severe diarrhea.
CT-26 cell line was used to make the tumor bearing mouse model by s.c. injection of 0.02mL cells in PBS at 5×10^7 cells/mL into the posterior mid-dorsum. Tumor volumes were estimated by the formula π/6×a^2×b, where a is the short and b is the long axis. When tumor volume reached roughly 100mm^3 (~10 days after implantation, defined as day 1), mice were randomly separated into 5 groups, 1). CPT-11 only group, receiving CPT-11 50mg/kg + vehicle 2). CPT-11+Hst 20mg/kg, 3). CPT-11+Hst 100mg/kg, 4). Hst 100mg/kg only, and 5) vehicle control group. CPT-11 was administrated by i.p. injection from day 1 to day 9 while Hst were administrated by oral gavage from day 1 to the end of study. An equivalent dosage of saline or CMC were administrated by i.p injection and oral gavage as vehicle, respectively. Mice were examined daily for signs of diarrhea (fecal staining of skin, lose watery stool) and bloody diarrhea (black sticky stool), as well as tumor growth. After sacrifice, jejunum, ileum and colon samples were dissected. Tissues were formalin-fixed and paraffin embedded for histological examination using 4μm-thick, 100μm step serial sections stained with H&E. A histologic score to evaluate inflammation, epithelial changes and mucosa architecture for each slide was calculated as described previously. For immunohistochemical staining, sections were stained with antibodies against Ki67, β-catenin, F4/80, Ly-6B.2 and pSTAT3 (Tyr705) overnight at 4°C. Slides were then washed and stained with the appropriate secondary antibodies. Mounted slides were examined under Olympus BX61 upright microscopy (HMRI Advanced Cellular and Tissue Microscope Core Facility).

COc1ccc([C@@H]2CC(=O)c3c(O)cc(O[C@@H]4O[C@H](CO[C@@H]5O[C@@H](C)[C@H](O)[C@@H](O)[C@H]5O)[C@@H](O)[C@H](O)[C@H]4O)cc3O2)cc1O [hesperidin]
fraction metabolized in cells to generate Hst [1]: 99%

CC1(C)CCC2=C(O1)c1ccccc1C(=O)C2=O [compound 1004, beta-Lapachone]
solubility remark [2]: poorly soluble, anti-tumor at mM level, combination and radiosensitizing activity

CCc1c2c(nc3ccc(OC(=O)N4CCC(N5CCCCC5)CC4)cc13)-c1cc3c(c(=O)n1C2)COC(=O)[C@]3(O)CC [CPT-11, irinotecan]
fraction found unchanged in human bile [3]: 30% | mice that had to be euthanized ([4]; CPT-11 only group, by day 12): all | mice that developed some degree of diarrhea ([4]; mouse, in vivo, 15 day): 100%
